Measured values reported in patent publication US20220175768A1, “FGFR TYROSINE KINASE INHIBITORS FOR THE TREATMENT OF UROTHELIAL CARCINOMA” (Janssen Pharmaceutica NV, priority 2019, published 2022).

[1] = 10 mg intermittent, regimen 1 (n = 33)

Procedure: Study treatment was administered on 28-day cycles. Prior to interim analysis 1, there were 2 treatment regimens. Patients were randomized 1:1 to 28-day cycles to the following 2 regimens until a regimen was selected for further study: Regimen 1 (10 mg once daily intermittent (7 days on/7 days); Regimen 2 (6 mg once daily continuous). Randomization was stratified according to performance status (0 to 1 vs. 2), hemoglobin value (<10 vs. ≥10 g per dl), FGFR alteration type (mutation vs. fusion), prior treatment status (chemotherapy-resistant vs. chemotherapy naïve), and disease distribution (presence or absence of visceral [liver, lung, bone] metastases). Starting dose selection was based on phase 1 efficacy and tolerability.
Thus, after interim analysis, this became a single-arm study. […] Treatment continued until disease progression or unacceptable adverse event(s) per investigator.
All objective responses required confirmation by an additional investigator assessment within 4 to 6 weeks of first assessment. Disease evaluations for regimen 3 were also performed by an independent radiographic review committee. […] Safety was evaluated based on clinical laboratory tests, physical exams, electrocardiograms, and ophthalmology examinations. Adverse events and abnormalities were assessed by investigator and graded per NCI CTCAE v.4.0
Prophylactic measures were taken to minimize risk of common adverse events related to FGFR inhibition. To reduce risk of hyperphosphatemia, a low-phosphate diet was recommended for all patients (600 to 800 mg of dietary phosphate intake per day). To reduce the risk of skin effects, the application of alcohol-free emollient moisturizing cream and avoidance of unnecessary exposure to sunlight, soap, perfumed products, and hot baths was recommended. Patients were asked to keep their fingers and toes clean and nails trimmed to reduce risk of nail effects.
Additional ophthalmology examinations were performed if clinically indicated.

COc1cc(OC)cc(N(CCNC(C)C)c2ccc3ncc(-c4cnn(C)c4)nc3c2)c1 [erdafitinib, N-(3,5-dimethoxy-phenyl)-N′-(1-methylethyl)-N-[3-(1-methyl-1H-pyrazol-4-yl)quinoxalin-6-yl]ethane-1,2-diamine]
4 (12) no. (%): Patients with Peripheral edema, Grade 2 [1] | Patients with Urinary tract infection, Any grade [1] | Patients with Vision blurred, Grade 1 [1] | Treatment-related adverse event: Conjunctivitis, Any grade [1] | Treatment-related adverse event: Decreased appetite, Grade 2 [1] | Treatment-related adverse event: Fatigue, Any grade [1] | Treatment-related adverse event: Lacrimation increased, Any grade [1] | Treatment-related adverse event: Lacrimation increased, Grade 1 [1] | Treatment-related adverse event: Vision blurred, Grade 1 [1]
7 (21) no. (%): Patients with Onycholysis, Any grade [1] | Patients with Vomiting, Grade 1 [1] | Treatment-related adverse event: Diarrhea, Grade 1 [1] | Treatment-related adverse event: Dry skin, Grade 1 [1] | Treatment-related adverse event: Dysgeusia, Grade 1 [1]
10 (30) no. (%): Treatment-related adverse event: Dysgeusia, Any grade [1]
9 (27) no. (%): Patients with Stomatitis, Grade 1 [1] | Patients with Vomiting, Any grade [1] | Treatment-related adverse event: Stomatitis, Grade 1 [1]
2 (6) no. (%): Patients with Hypomagnesemia, Any grade [1] | Patients with Hypomagnesemia, Grade 1 [1] | Patients with Hyponatremia, Any grade [1] | Patients with Hyponatremia, Grade ≥3 [1] | Patients with Nail dystrophy, Any grade [1] | Patients with Nail dystrophy, Grade 1 [1] | Patients with Nausea, Grade 2 [1] | Patients with Paronychia, Any grade [1] | Patients with Paronychia, Grade 2 [1] | Patients with Retinal detachment, Any grade [1] | Patients with Urinary tract infection, Grade 2 [1] | Patients with Urinary tract infection, Grade ≥3 [1] | Patients with Vomiting, Grade 2 [1] | Patients with Weight decreased, Grade 2 [1] | Treatment-related adverse event: Alopecia, Grade 2 [1] | Treatment-related adverse event: Asthenia, Grade 1 [1] | Treatment-related adverse event: Asthenia, Grade 2 [1] | Treatment-related adverse event: Asthenia, Grade ≥3 [1] | Treatment-related adverse event: Decreased appetite, Grade 1 [1] | Treatment-related adverse event: Fatigue, Grade 1 [1] | Treatment-related adverse event: Fatigue, Grade 2 [1] | Treatment-related adverse event: Hand-foot syndrome, Any grade [1] | Treatment-related adverse event: Hand-foot syndrome, Grade 2 [1] | Treatment-related adverse event: Nausea, Grade 2 [1] | Treatment-related adverse event: Onycholysis, Grade 1 [1] | Treatment-related adverse event: Paronychia, Any grade [1] | Treatment-related adverse event: Paronychia, Grade 2 [1] | Treatment-related adverse event: Retinal detachment, Any grade [1]
8 (24) no. (%): Treatment-related adverse event: Dry skin, Any grade [1]
16 (49) no. (%): Treatment-related adverse event: Stomatitis, Any grade [1]
16%: Stomatitis leading to dose reduction (Regimen 3)
3 (9) no. (%): Patients with Insomnia, Any grade [1] | Patients with Insomnia, Grade 2 [1] | Patients with Nausea, Grade 1 [1] | Patients with Onycholysis, Grade 1 [1] | Patients with Onycholysis, Grade 2 [1] | Patients with Pain in extremity, Grade 1 [1] | Patients with Weight decreased, Any grade [1] | Treatment-related adverse event: Alopecia, Any grade [1] | Treatment-related adverse event: Conjunctivitis, Grade 1 [1] | Treatment-related adverse event: Dysgeusia, Grade 2 [1] | Treatment-related adverse event: Nausea, Grade 1 [1] | Treatment-related adverse event: Onycholysis, Grade 2 [1]
Seventy-six: Central serious retinopathy events resolved (all unresolved events were grade 1 or 2)
67%: Treatment-emergent adverse events grade 3 or 4 (Regimen 3)
9%: Hyperphosphatemia leading to dose reduction (Regimen 3)
0 no. (%): Patients with Hematuria, Grade ≥3 [1] | Patients with Hyperphosphatemia, Grade ≥3 [1] | Patients with Hypomagnesemia, Grade 2 [1] | Patients with Hypomagnesemia, Grade ≥3 [1] | Patients with Hyponatremia, Grade 1 [1] | Patients with Hyponatremia, Grade 2 [1] | Patients with Insomnia, Grade 1 [1] | Patients with Insomnia, Grade ≥3 [1] | Patients with Lacrimation increased, Grade ≥3 [1] | Patients with Nail dystrophy, Grade 2 [1] | Patients with Nail dystrophy, Grade ≥3 [1] | Patients with Nausea, Grade ≥3 [1] | Patients with Onychomadesis, Grade 2 [1] | Patients with Onychomadesis, Grade ≥3 [1] | Patients with Oropharyngeal pain, Any grade [1] | Patients with Oropharyngeal pain, Grade 1 [1] | Patients with Oropharyngeal pain, Grade 2 [1] | Patients with Oropharyngeal pain, Grade ≥3 [1] | Patients with Paronychia, Grade 1 [1] | Patients with Paronychia, Grade ≥3 [1] | Patients with Peripheral edema, Grade ≥3 [1] | Patients with Pyrexia, Grade 2 [1] | Patients with Pyrexia, Grade ≥3 [1] | Patients with Retinal detachment, Grade ≥3 [1] | Patients with Urinary tract infection, Grade 1 [1] | Patients with Vision blurred, Grade ≥3 [1] | Patients with Vomiting, Grade ≥3 [1] | Patients with Weight decreased, Grade ≥3 [1] | Treatment-related adverse event: Alopecia, Grade ≥3 [1] | Treatment-related adverse event: Conjunctivitis, Grade ≥3 [1] | Treatment-related adverse event: Decreased appetite, Grade ≥3 [1] | Treatment-related adverse event: Dry mouth, Grade ≥3 [1] | Treatment-related adverse event: Dry skin, Grade ≥3 [1] | Treatment-related adverse event: Dysgeusia, Grade ≥3 [1] | Treatment-related adverse event: Fatigue, Grade ≥3 [1] | Treatment-related adverse event: Hand-foot syndrome, Grade 1 [1] | Treatment-related adverse event: Hand-foot syndrome, Grade ≥3 [1] | Treatment-related adverse event: Hyperphosphatemia, Grade ≥3 [1] | Treatment-related adverse event: Lacrimation increased, Grade 2 [1] | Treatment-related adverse event: Lacrimation increased, Grade ≥3 [1] | Treatment-related adverse event: Nausea, Grade ≥3 [1] | Treatment-related adverse event: Onychomadesis, Grade 2 [1] | Treatment-related adverse event: Onychomadesis, Grade ≥3 [1] | Treatment-related adverse event: Paronychia, Grade 1 [1] | Treatment-related adverse event: Paronychia, Grade ≥3 [1] | Treatment-related adverse event: Retinal detachment, Grade ≥3 [1] | Treatment-related adverse event: Vision blurred, Grade ≥3 [1]
15 (46) no. (%): Patients with Hyperphosphatemia, Grade 1 [1] | Treatment-related adverse event: Hyperphosphatemia, Any grade [1]
23%: Hyperphosphatemia managed by dose interruption (in vivo)
13%: Patients discontinued due to treatment-emergent adverse events (Regimen 3)
6 weeks: Time of peak phosphate elevation after erdafitinib initiation (normalized by cycle 5)
6 (18) no. (%): Patients with Lacrimation increased, Any grade [1] | Patients with Stomatitis, Grade 2 [1] | Treatment-related adverse event: Asthenia, Any grade [1] | Treatment-related adverse event: Decreased appetite, Any grade [1] | Treatment-related adverse event: Onycholysis, Any grade [1] | Treatment-related adverse event: Stomatitis, Grade 2 [1]
13 (39) no. (%): Treatment-related adverse event: Diarrhea, Any grade [1] | Treatment-related adverse event: Dry mouth, Grade 1 [1]
14 (42) no. (%): Treatment-related adverse event: Dry mouth, Any grade [1] | Treatment-related adverse event: Hyperphosphatemia, Grade 1 [1]
16 (48) no. (%): Patients with Hyperphosphatemia, Any grade [1] | Patients with Stomatitis, Any grade [1]
84%: Patients with grade 1 or 2 events among patients with eye disorders (patients with eye disorders (n=62))
59%: Patients who required ≥1 dose reduction (41 patients of the 8 mg regimen uptitrated to 9 mg per day)
77%: Hyperphosphatemia reported (Regimen 3)
66%: Patients with grade ≥3 treatment-emergent adverse events (overall trial population)
1 (3) no. (%): Patients with Hyperphosphatemia, Grade 2 [1] | Patients with Lacrimation increased, Grade 2 [1] | Patients with Onycholysis, Grade ≥3 [1] | Patients with Onychomadesis, Any grade [1] | Patients with Onychomadesis, Grade 1 [1] | Patients with Pain in extremity, Grade 2 [1] | Patients with Pain in extremity, Grade ≥3 [1] | Patients with Peripheral edema, Grade 1 [1] | Patients with Retinal detachment, Grade 1 [1] | Patients with Retinal detachment, Grade 2 [1] | Patients with Stomatitis, Grade ≥3 [1] | Patients with Vision blurred, Grade 2 [1] | Patients with Weight decreased, Grade 1 [1] | Treatment-related adverse event: Alopecia, Grade 1 [1] | Treatment-related adverse event: Conjunctivitis, Grade 2 [1] | Treatment-related adverse event: Diarrhea, Grade ≥3 [1] | Treatment-related adverse event: Dry mouth, Grade 2 [1] | Treatment-related adverse event: Dry skin, Grade 2 [1] | Treatment-related adverse event: Hyperphosphatemia, Grade 2 [1] | Treatment-related adverse event: Onycholysis, Grade ≥3 [1] | Treatment-related adverse event: Onychomadesis, Any grade [1] | Treatment-related adverse event: Onychomadesis, Grade 1 [1] | Treatment-related adverse event: Retinal detachment, Grade 1 [1] | Treatment-related adverse event: Retinal detachment, Grade 2 [1] | Treatment-related adverse event: Stomatitis, Grade ≥3 [1] | Treatment-related adverse event: Vision blurred, Grade 2 [1]
5 (15) no. (%): Patients with Lacrimation increased, Grade 1 [1] | Patients with Nausea, Any grade [1] | Patients with Pain in extremity, Any grade [1] | Patients with Peripheral edema, Any grade [1] | Patients with Pyrexia, Any grade [1] | Patients with Pyrexia, Grade 1 [1] | Patients with Vision blurred, Any grade [1] | Treatment-related adverse event: Diarrhea, Grade 2 [1] | Treatment-related adverse event: Nausea, Any grade [1] | Treatment-related adverse event: Vision blurred, Any grade [1]
56%: Patients who required dose reduction (Regimen 3)
0 no.: Serious treatment-emergent adverse event: Nervous system disorders [1] | Serious treatment-emergent adverse event: Urinary tract infection [1] | Serious treatment-emergent adverse event: Urosepsis [1]
